Where two headings read alike, the source gives them in different places. Each block holds one molecule with its values, some of them ahead of it.
How the values were obtained:
[1] = Transmembrane penetration analysis; assay type: in vitro ADME, swine; conditions: for True Value Concentration (completely penetrated active agent): 0.25 mL gel admixed with 5.5 mL saline; for Penetration Ratio: relative to true value
From the text: The solution was admixed with the aquagel or O/W gel described hereinabove to afford an active agent-containing gel. In the comparative example, commercially available vaseline ointment was admixed with heptane to form vaseline gel, and the solution was also admixed with the vaseline gel.
In the transmembrane penetration analysis, swine endometrium was used as the membrane. The swine endometrium of suitable size was disposed between an upper container and a lower container. The lower container was filled with physiologic saline and debubbled. […] The pipetted sample was analyzed with HPLC-PDA system.
In addition, about 0.25 mL of each gel was admixed with about 5.5 mL of saline. The admixture was extracted, filtered through a filter film (0.45 μm) and then analyzes by HPLE-PDA. The results (referred to as the “true value” hereinafter) thus obtained were regarded as the amount of a completely penetrated active agent present in the lower container.

[2] = Solvent/water partition coefficient analysis (1-Octanol/water); assay type: physicochemical; conditions: for logP: logarithm of the ratio of 1-Octanol to water, read-out: Partition coefficient [log Poct/wat]
Experimental: Solvent/water partition coefficient analysis was conducted to determine the solvent/water partition coefficient. Various solvent were used in the experiments; yet, only the 1-Octanol/water partition coefficients of the active agents described herein above are summarized in Table 4. The 1-Octanol/water partition coefficient is the logarithm of the ratio of 1-Octanol to water and can be expressed as [log Poct/wat].

[3] = Comparative Example D (vaseline gel)
[4] = Working Example 3 (aqua gel), 1 hr
[5] = Working Example 3 (aqua gel), 3 hr
[6] = Working Example 3 (aqua gel), 5 hr
[7] = Working Example 3 (aqua gel), 21 hr
[8] = Working Example 3 (aqua gel), 24 hr
[9] = Working Example 4 (O/W gel), 21 hr
[10] = Working Example 4 (O/W gel), 24 hr
[11] = Working Example 4 (O/W gel), 26 hr

- True Value Concentration (completely penetrated active agent) [1, 3]: 0.1563 mg/mL
- Concentration in lower container ([1]; Comparative Example D (vaseline gel), 3 hr): 460 ng/mL
- Concentration in lower container ([1]; Comparative Example D (vaseline gel), 5 hr): 590 ng/mL
- Concentration in lower container ([1]; Comparative Example D (vaseline gel), 10.5 hr): 960 ng/mL
- Concentration in lower container ([1]; Comparative Example D (vaseline gel), 24 hr): 1740 ng/mL
- Concentration in lower container ([1]; Comparative Example D (vaseline gel), 26 hr): 1430 ng/mL
- True Value Concentration (completely penetrated active agent) ([1]; Working Example 3 (aqua gel)): 0.09568 mg/mL
- Concentration in lower container [1, 4]: 13200 ng/mL
- Concentration in lower container [1, 5]: 31080 ng/mL
- Concentration in lower container [1, 6]: 395900 ng/mL
- Concentration in lower container [1, 7]: 635800 ng/mL
- Concentration in lower container [1, 8]: 587100 ng/mL
- Concentration in lower container ([1]; Working Example 3 (aqua gel), 26 hr): 595100 ng/mL
- True Value Concentration (completely penetrated active agent) ([1]; Working Example 4 (O/W gel)): 0.1433 mg/mL
- Concentration in lower container [1, 9]: 6510 ng/mL
- Concentration in lower container [1, 10]: 61670 ng/mL
- Concentration in lower container [1, 11]: 81070 ng/mL
- logP ([2]; 1-octanol/water): 0.05
SMILES: Cc1ncc([N+](=O)[O-])n1CCO [Metronidazole (MTZ), Metronidazole]

- True Value Concentration (completely penetrated active agent) [1, 3]: 0.1865 mg/mL
- True Value Concentration (completely penetrated active agent) ([1]; Working Example 3 (aqua gel)): 0.09979 mg/mL
- Concentration in lower container [1, 4]: 5970 ng/mL
- Concentration in lower container [1, 5]: 21420 ng/mL
- Concentration in lower container [1, 6]: 29640 ng/mL
- Concentration in lower container [1, 7]: 62890 ng/mL
- Concentration in lower container [1, 8]: 58630 ng/mL
- True Value Concentration (completely penetrated active agent) ([1]; Working Example 4 (O/W gel)): 0.1375 mg/mL
- Concentration in lower container [1, 9]: 2510 ng/mL
- Concentration in lower container [1, 10]: 60500 ng/mL
- Concentration in lower container [1, 11]: 83400 ng/mL
- logP ([2]; 1-octanol/water): -1.58
SMILES: Nc1nc2c(ncn2COCCO)c(=O)[nH]1 [Acyclovir (ACY), Acyclovir]

- True Value Concentration (completely penetrated active agent) ([1]; Working Example 4 (O/W gel)): 0.1401 mg/mL
- Concentration in lower container [1, 9]: 7060 ng/mL
- Concentration in lower container [1, 10]: 60660 ng/mL
- Concentration in lower container [1, 11]: 82720 ng/mL
SMILES: Clc1ccc(COC(Cn2ccnc2)c2ccc(Cl)cc2Cl)c(Cl)c1 (centres unmarked) [Miconazole nitrate(MIC), Miconazole nitrate]

SMILES: O=c1ccc2ccc3occc3c2o1 [Isopsoralen]
- 1-Octanol/H2O ratio [2]: 306.9
- logP [2]: 2.49

SMILES: CC(C)[C@]12O[C@H]1[C@@H]1O[C@]13[C@]1(O[C@H]1C[C@H]1C4=C(CC[C@@]13C)C(=O)OC4)[C@@H]2O [Triptolide]
- 1-Octanol/H2O ratio [2]: 54.13
- logP [2]: 1.73

SMILES: C[C@@H]1[C@H](O)[C@@H](C)/C=C/C=C/CC/C=C/C=C/C=C/C=C/C(O[C@H]2O[C@H](C)[C@@H](O)[C@H](N)[C@@H]2O)CC2O[C@](O)(CC(O)C(O)CCC(O)CC(O)CC(O)CC(=O)O[C@H]1C)CC(O)C2C(=O)O (some centres unmarked) [Nystatin (NYS), Nystatin]
- True Value Concentration (completely penetrated active agent) ([1]; Working Example 4 (O/W gel)): 0.06448 mg/mL
- Concentration in lower container [1, 9]: 1930 ng/mL
- Penetration Ratio [1, 9]: 2.99%
- Concentration in lower container [1, 10]: 20720 ng/mL
- Penetration Ratio [1, 10]: 32.14%
- Concentration in lower container [1, 11]: 30070 ng/mL
- Penetration Ratio [1, 11]: 46.64%
- 1-Octanol/H2O ratio [2]: 1.98
- Partition coefficient [log Poct/wat] [2]: 0.30

- 1-Octanol/H2O ratio [2]: 1.859
- logP [2]: 0.27
SMILES: O=C(O)c1cc(O)c(O)c(O)c1 [Gallic acid]

- 1-Octanol/H2O ratio [2]: Insoluble in water
SMILES: O=c1cc(-c2ccccc2)oc2cc(O)c(O)c(O)c12 [Baicalein]

From patent US8501214B2, “Hydrophilic foam and pharmaceutical dosage form employing the same” (priority 2007, dated 2013)
